Reference: US4258184A, “Cephalosporin derivatives” (Meiji Seika Kaisha Ltd., priority 1976, dated 1981)
In brackets after ≈: the same amount, converted by molar mass. Like-named read-outs stand apart in the source and are kept apart here.

Tests used:
Assay type in all cases: cell-based
[1] = test system: Bacillus subtilis ATCC 6633; experiment: Minimum prohibiting concentration by agar plate dilution method; settings: Bacillus subtilis, ATCC6633, read-out: Minimum prohibiting concentration
Source text: (§1) Minimum prohibiting concentration (γ/ml)
(§2) by means of agar plate dilution method

[2] = test system: Enterobacter species C73-17; experiment: as above; settings: Enterobacter, C7317, read-out: Minimum prohibiting concentration
Source text: as §1, §2

[3] = test system: Escherichia coli C73-1; experiment: as above; settings: Escherichia coli, C731, read-out: Minimum prohibiting concentration
Source text: as §1, §2

[4] = test system: Escherichia coli K-12 IAM 1264; experiment: as above; settings: IAM1264, Table 1
Source text: as §1, §2

[5] = test system: Escherichia coli NIHJ JC-2; experiment: as above; settings: Escherichia coli, NIHJJC2, read-out: Minimum prohibiting concentration
Source text: as §1, §2

[6] = test system: Proteus species C73-25; experiment: as above; settings: read-out: Minimum prohibiting concentration
Source text: as §1, §2

[7] = test system: Proteus species C73-34; experiment: as above; settings: read-out: Minimum prohibiting concentration
Source text: as §1, §2

[8] = test system: Pseudomonas aeruginosa IAM 1007; experiment: as above; settings: Pseudomonas aeruginosa, IAM1007, read-out: Minimum prohibiting concentration
Source text: as §1, §2

[9] = test system: Pseudomonas species C73-2; experiment: as above; settings: C732, Table 1
Source text: as §1, §2

[10] = test system: Pseudomonas species C73-83; experiment: as above; settings: Pseudomonas, C7383, read-out: Minimum prohibiting concentration
Source text: as §1, §2

[11] = test system: Serratia species MS-2; experiment: as above; settings: Serratia, MS2, read-out: Minimum prohibiting concentration
Source text: as §1, §2

[12] = test system: Serratia species No. 2; experiment: as above; settings: Serratia, NO.2, read-out: Minimum prohibiting concentration
Source text: as §1, §2

[13] = test system: Staphylococcus aureus 209p JC-1; experiment: as above; settings: Staphylococcus aureus, 209P, read-out: Minimum prohibiting concentration
Source text: as §1, §2

[14] = test system: Staphylococcus aureus No. 26; experiment: as above; settings: Staphylococcus aureus, NO.26, read-out: Minimum prohibiting concentration
Source text: as §1, §2

[15] = test system: Vibrio parahaemolyticus K-7; experiment: as above; settings: Vibrio parahaemolyticus, K7, read-out: Minimum prohibiting concentration
Source text: as §1, §2

[16] = test system: Proteus morganii Kono; experiment: Minimum prohibiting/inhibition concentration by agar plate dilution method; settings: Morganella morganii
Source text: as §1, §2
(§3) Minimum inhibition concentration (γ/ml) by means
(§4) of agar plate dilution method

[17] = test system: Salmonella enteriditis No. 11; experiment: as above
Source text: as §1, §2, §3, §4

[18] = test system: Salmonella typhi O-901-W; experiment: as above; settings: Salmonella enterica
Source text: as §1, §2, §3, §4

[19] = test system: Staphylococcus aureus Smith S-424; experiment: as above
Source text: as §1, §2, §3, §4

[20] = test system: Vibrio parahaemolyticus K-5; experiment: as above
Source text: as §1, §2, §3, §4

[21] = test system: Klebsiella pneumoniae; experiment: Minimum inhibition concentration by agar plate dilution method; settings: Table 2
Source text: as §3, §4

[22] = test system: Staphylococcus aureus Smith No. 26; experiment: as above; settings: read-out: Minimum inhibition concentration
Source text: as §3, §4

[23] = read-out: Minimum prohibiting concentration
[24] = Table 2, agar plate dilution method, Proteus morganii Kono, read-out: Minimum inhibition concentration
[25] = read-out: Minimum inhibition concentration
[26] = K5, Table 2, agar plate dilution method, Vibrio parahaemolyticus K-5, read-out: Minimum inhibition concentration

With `Cc1ccc(-c2ccc(C(=O)N[C@@H](C(=O)NC3C(=O)N4C(C(=O)[O-])=C(CSc5nnc(C(N)=O)s5)CS[C@H]34)c3ccc(O)cc3)c(O)n2)cc1.[Na+]` (stereo partly drawn) [Example 8, sodium 7-{D(-)-α-[2-hydroxy-6-(p-tolyl)pyridine-3-carbonylamino]-p-hydroxyphenylacetamido}-3-(5-carbamoyl-1,3,4-thiadiazol-2-ylthiomethyl)-3-cephem-4-carboxylate] the MIC [1] was 0.78 µg/mL, the MIC [2] was 12.5 µg/mL and the MIC [3] was 6.25 µg/mL. The MIC [4] was 1.56 µg/mL, the MIC [5] was 12.5 µg/mL and the MIC [6] was 50 µg/mL. For the same molecule, the MIC [7] was 12.5 µg/mL, the MIC [8] was 100 µg/mL and the MIC [9] was 50 µg/mL. For the same molecule, the MIC [10] was 100 µg/mL, the MIC [11] was 50 µg/mL and the MIC [12] was 50 µg/mL. For the same molecule, the MIC [13] was 0.2 µg/mL, the MIC [14] was 3.13 µg/mL and the MIC [15] was 3.13 µg/mL. For the same molecule, the MIC [16, 23] was 25 µg/mL, the MIC ([17]; Salmonella, NO.11, read-out: Minimum prohibiting concentration) was 0.78 µg/mL and the MIC [18, 23] was 1.56 µg/mL. For the same molecule, the MIC ([19]; Staphylococcus aureus, SMITHS424, read-out: Minimum prohibiting concentration) was 0.39 µg/mL and the MIC ([20]; Vibrio parahaemolyticus, K5, read-out: Minimum prohibiting concentration) was 3.13 µg/mL.
Molecule `Cc1ccc(-c2ccc(C(=O)N[C@@H](C(=O)NC3C(=O)N4C(C(=O)O)=C(CSc5nnnn5C)CS[C@H]34)c3ccc(O)cc3)c(O)n2)cc1` (stereo partly drawn) [Example 56, 7-{D-(-)-α-[2-hydroxy-6-(p-tolyl)pyridine-3-carbonylamino]-p-hydroxyphenylacetamido}-3-(1-methyl-1,2,3,4-tetrazole-5-ylthiomethyl)-3-cephem-4-carboxylic acid] has an MIC [16, 24] of 12.5 µg/mL (≈ 18.1 µM), an MIC [17, 25] of 1.56 µg/mL (≈ 2.26 µM) and an MIC [18, 25] of 1.56 µg/mL (≈ 2.26 µM). For the same molecule, the MIC ([19]; Staphylococcus aureus, SMITHS424, read-out: Minimum inhibition concentration) was 1.56 µg/mL (≈ 2.26 µM), the MIC [20, 26] was 25 µg/mL (≈ 36.3 µM) and the MIC [21] was 25 µg/mL (≈ 36.3 µM). The MIC ([22]; Staphylococcus aureus) was 6.25 µg/mL (≈ 9.07 µM).
`Cc1ccc(-c2ccc(C(=O)N[C@@H](C(=O)NC3C(=O)N4C(C(=O)O)=C(CSc5nnnn5C)CS[C@H]34)c3ccccc3)c(O)n2)cc1` (stereo partly drawn) [Example 57, 7-{D-(-)-α-[2-hydroxy-6-(p-tolyl)pyridine-3-carbonylamino]-phenylacetamido}-3-(1-methyl-1,2,3,4-tetrazole-5-ylthiomethyl)-3-cephem-4-carboxylicacid] showed an MIC [16, 24] of 100 µg/mL (≈ 149 µM), an MIC ([17]; Table 2, agar plate dilution method, Salmonella enteritidis N0. 11, read-out: Minimum inhibition concentration) of 3.13 µg/mL (≈ 4.65 µM) and an MIC [18, 25] of 6.25 µg/mL (≈ 9.29 µM). It also gave an MIC ([19]; SMITHS424, Table 2, agar plate dilution method, Staphylococcus aureus Smith S-424, read-out: Minimum inhibition concentration) of 12.5 µg/mL (≈ 18.6 µM), an MIC [20, 26] of 25 µg/mL (≈ 37.2 µM) and an MIC [21] of 50 µg/mL (≈ 74.3 µM). It also gave an MIC ([22]; Table 2, agar plate dilution method, Staphylococcus aureus Smith No. 26) of 50 µg/mL (≈ 74.3 µM).
